According to US11730730B2, “Cell-based screening and compounds that modulate GalNAc-transferases” (Carnegie Mellon University, priority 2018, dated 2023):
Where two headings read alike, the source gives them in different places.

Legend:
purified ppGalNAc-T6 = purified ppGalNAc-T6 (Homo sapiens, UniProt Q8NCL4); conditions: purified enzyme, in vitro glycosylation
Method: Secondary screen. Glycosylation assays using recombinant ppGalNAc-T2 and ppGalNAc-T3 were carried out using the UDP-GLO™ Glycosyltransferase assay kit (Promega, Madison, Wis., Cat #V6962), according to the manufacturer's recommendation. The reaction (25 μl) included 2.5 ng/μl purified enzyme, 25 μM UDP-GalNAc (Sigma-Aldrich, Cat #U5252), 12.5 μM EA2 peptide (AnaSpec, Mucin 10, AA153-165, […], Cat #AS-63841), 25 mM Tris-HCl (pH7.5) (Fisher Scientific, Cat #77-86-1), 5 mM MnCl2 (Fisher Scientific, Cat #M87-500), 2.5 mM CaCl2) (Fisher Scientific, Cat #C70-500) and 50 μM compound. The negative control was vehicle only (same reaction mixture with a matched percentage of DMSO instead of compound), whereas background was from the reaction carried out without enzyme and DMSO instead of compound. All reactions were incubated at 37° C. in a water bath for 30 min and then cooled to room temperature. […] After 1 h at room temperature the luminescent signals were determined using a Tecan Infinite M1000 (Tecan Group Ltd., Männedorf, Switzerland) with integration time set to 1000 msec. The background-subtracted average for each compound was expressed as a percentage of the negative control (taken as 100%). […]
(§1) Titration assays. […] After 5 min at 37° C., fluorescence measurements (20,000 cells/well) were carried out as described above. […]

HeLa cells [1] = conditions: 6 h, 10 μM
ppGalNAc-T3 = ppGalNAc-T3 (Homo sapiens, UniProt Q14435); conditions: read-out: apparent IC50 of T3 sensor activation; HEK cells expressing T3 sensor, 6 h, 0-50 μM
Method: (§2) Primary screen. HEK cells stably expressing the T2 sensor (containing ANGPTL3 linker sequence with T225G modification) or the T3 sensor (containing FGF23-based linker) were cultured in MEM (Corning, N.Y., Cat #10-010-CV) with 10% fetal bovine serum (FBS, Atlanta Biologicals, Flowery Branch, Ga., Cat #5111150) and 100 IU/ml penicillin-streptomycin (Sigma-Aldrich, Cat #P4333) at 37° C., 5% CO2. Positive controls were cell lines expressing matched sensors with the glycosylation site mutated (Δglycan), specifically T225G/T226G and T178G for the T2 and T3 sensors, respectively. Cells (50,000/well) were seeded in flat bottom 96-well-plates (Corning, N.Y., Cat #3997) and grown for 24 h. Compounds (the diversity set from ChemBridge Corporation (Chicago, Ill.) and the approved oncology drugs set V and the diversity set II from the National Cancer Institute Developmental Therapeutics Program) were then added to achieve a 10 μM final concentration. […] The plates were then transferred to an Accuri™ C6 flow cytometer (BD Biosciences) where GFP and MG fluorescence was measured using 488 nm and 640 nm for 10,000 cells per well. […]
as §1

ppGalNAc-T2 = ppGalNAc-T2 (Homo sapiens, UniProt Q10471); conditions: HEK cells expressing T2 sensor, 6 h, 0-50 μM
Method: as §2, §1

MDA-MB231 cells [2] = conditions: MDA-MB231, 5 μM T3Inh-1, 24 or 48 h
Method: Proliferation assay. […] After 24, 48 or 72 h, the cells were released using trypsin and counted twice using a hemocytometer for 3 independent trials.

ANGPTL3 = conditions: media of HEK cells transfected with Myc-ANGPTL3, 6 h
Method: (§3) Immunoblotting. The FLAG-tagged FGF23, Myc-tagged ANGPTL3 with the T225G modification, and untagged ppGalNAc-T3 (cloned into PCDNA 3.0 using BamH1 sites) were transfected into HEK cells using the JetPEI transfection reagent (VWR International, Radnor, Pa., Cat #101-40N) according to the manufacturer's instructions. After 24 h, the medium was replaced with serum-free MEM containing the compound for 6 h. The medium and cells were then collected and, after trichloroacetic acid precipitation of the medium, analyzed by immunoblot using anti-FLAG antibody at 1:1000 or anti-Myc antibody at 1:2000 and then the peroxidase-coupled secondary antibodies. Emission was captured and quantified using a CHEMIDOC™ Touch Imaging System with Image Lab Software (BioRad, SCR_014210). For ppGalNAc-T3 determinations in different cell lines, cells were collected and lysed with 100 μl buffer (10 mM Tris-HCl (pH8.0), 1 mM EDTA (ACROS ORGANICS, Cat #446085000), 1% Triton X-100, 0.1% sodium deoxycholate (Fisher Scientific, Cat #BP349-100), 0.1% SDS (Fisher Scientific, Cat #BP166-500), 140 mM NaCl (Fisher Scientific, Cat #5271-3), 1 mM PMSF (Sigma-Aldrich, Cat #PMSF-RO). Then 15 μl of each lysate was analyzed by immunoblotting using the purchased anti-ppGalNAc-T3 and anti-α-tubulin antibodies.

FGF23 [3] = test system: FGF23
Method: as §3

purified ppGalNAc-T3 = purified ppGalNAc-T3 (Homo sapiens, UniProt Q14435); conditions: for Vmax: percent of control without inhibitor
Method: (§4) A second stage reaction (UDP-GLO™) then converted the accumulated UDP product to ATP and then, via luciferase, to light.
(§5) Secondary screen. Glycosylation assays using recombinant ppGalNAc-T2 and ppGalNAc-T3 were carried out using the UDP-GLO™ Glycosyltransferase assay kit (Promega, Madison, Wis., Cat #V6962), according to the manufacturer's recommendation. The reaction (25 μl) included 2.5 ng/μl purified enzyme, 25 μM UDP-GalNAc (Sigma-Aldrich, Cat #U5252), 12.5 μM EA2 peptide (AnaSpec, Mucin 10, AA153-165, […], Cat #AS-63841), 25 mM Tris-HCl (pH7.5) (Fisher Scientific, Cat #77-86-1), 5 mM MnCl2 (Fisher Scientific, Cat #M87-500), 2.5 mM CaCl2) (Fisher Scientific, Cat #C70-500) and 50 μM compound. The negative control was vehicle only (same reaction mixture with a matched percentage of DMSO instead of compound), whereas background was from the reaction carried out without enzyme and DMSO instead of compound. All reactions were incubated at 37° C. in a water bath for 30 min and then cooled to room temperature. Aliquots (5 μl) were then added to 384-well plate (Thermo Scientific, Waltham, Mass., Cat #164610) to which 5 μl of UDP Detection Reagent was also added. Duplicate measures were made for all reactions. After 1 h at room temperature the luminescent signals were determined using a Tecan Infinite M1000 (Tecan Group Ltd., Männedorf, Switzerland) with integration time set to 1000 msec. The background-subtracted average for each compound was expressed as a percentage of the negative control (taken as 100%). Compounds with ≥50% effect were considered direct modulators.
(§6) Titration assays. For the sensor assay, about 200,000 cells expressing either sensor were seeded into Greiner Bio-One 24-well plates (Sigma-Aldrich, Cat #662160). After 24 h, the cells were incubated for another 6 h in the presence of 0-50 μM compound. To release the cells the medium was replaced with 200 μl 5 mM EDTA/PBS containing 110 nM MG dye. After 5 min at 37° C., fluorescence measurements (20,000 cells/well) were carried out as described above. For the biochemical assay, the assay conditions were identical except for variations in the compound or substrate concentrations as indicated in the figure legends. Data analysis was completed using Prism (Graph Pad Prism Inc., SCR_002798).

purified ppGalNAc-T2 = purified ppGalNAc-T2 (Homo sapiens, UniProt Q10471); conditions: purified enzyme, in vitro glycosylation
Method: as §4, §5, §6

MDA-MB231 cells [4] = conditions: 24 or 48 h
Method: (§7) Cell invasion assay. Breast cancer MDA-MB231 cells were grown in DMEM medium (Corning, N.Y., Cat #10-013-CV) with 10% FBS and 100 IU/ml penicillin-streptomycin at 37° C. and 5% CO2 and then plated at a density of 1.32×104 in 0.3 ml of DMEM medium without FBS into the upper chamber of a BIOBOAT™ insert fitted with a 8.0 μm PET membrane (Corning, N.Y., Cat #354578). For migration assays, the filter was uncoated. […] Medium containing 10% FBS (0.6 ml) was placed into the lower chamber as a chemo attractant. The compound (final concentration of 5 μM) or a matching amount of DMSO was added to both chambers. After 24 h or 48 h the cells were fixed with −20° C. methanol for 15 min and then stained with Trypan blue for 5 min. Cells on the upper surface were removed using cotton swabs. Cells present on the underside of the membrane were photographed using an EVOS FL Cell Imaging System (Invitrogen, CA) and the images were thresholded for presentation and counting using Image J (National Institutes of Health, Bethesda, Md., SCR_003070). The assays involving MCF7 cells were identical except that they were performed 24 h post transfection.

MCF7 cells = conditions: MCF7, 5 μM T3Inh-1, 24 h, Matrigel-coated filters
Method: as §7

HeLa cells [5] = conditions: 24 h treatment, 10 or 20 μM
Method: Lectin staining. […] After staining, the cells were washed twice, lysed with 0.2% Triton X-100 (Fisher Scientific, Cat #BP151-100) for 15 min at 4° C., centrifuged at 14,000×g for 15 min at 4° C., and the supernatants were read in a Greiner Bio-One 96-well glass-bottom plate using a Tecan Infinite M1000 with excitation at 495 nm and emission from 510-550 nm. Three independent trials were carried out and the peak value (520 nm) was used for quantification.

[6] = target: purified lumenal domain of ppGalNAc-T3 (Homo sapiens, UniProt Q14435)
Description: Tryptophan fluorescence quenching assay. […] The value at the peak of emission at 324 nm was used for the binding curve analysis by Prism.

[7] = mice, 25 and 50 mg/kg intraperitoneal, 1 or 2 injections
Method: (§8) Animal analysis. Wild-type C57BL/6 six to eight week old mice were purchased from Charles River Laboratories International Inc. (Wilmington, Mass.). Protocols, handling, and care of the mice conformed to protocols approved by the Institutional Animal Care and Use Committee of Carnegie Mellon University (CMU IACUC protocol AS16-005). The compound was dissolved in DMSO at 25 and 50 mg/ml then further diluted with PEG400 (Hampton Research, CA, USA, HR2-603) to create 5 and 10 mg/ml stocks for injection. Control (vehicle only: 20% DMSO, 80% PEG400) and experimental (25 or 50 mg/kg compound) animals received either single or double (separated by 24 h) intraperitoneal injections and, 24 h after the last injection, a cardiac blood draw was carried out. The cleaved/intact FGF23 ratio was determined using ELISA kits from Immunotopics (Carlsbad, Va., USA, Cat #60-6800, Cat #60-6300) with cleaved equaling total minus intact.

FGF23 [8] = conditions: mice; for ratio of cleaved/intact FGF23 in the blood: 1 or 2 injections, blood 24 h after last
Method: as §8

## O=C(Nc1ccc(Nc2ccncc2)cc1)c1ccc(Nc2ccnc3ccccc23)cc1 [Compound T3Inh-1]
Purified ppGalNAc-T6
  activity against ppGalNAc-T6: lacked activity
HeLa cells [1]
  localization or expression level of ppGalNAc-T3, ppGalNAc-T2 or any other Golgi marker tested: no change
HEK cells; 0-50 μM, 24, 48, 72 h, cell counting
  HEK cell proliferation: did not affect
HEK cells; HEK cells, continuous exposure 24, 48, 72 h
  toxicity: no toxicity
ppGalNAc-T3
  IC50: 12 µM
ppGalNAc-T2
  activity towards the T2 sensor: little or no activity
MDA-MB231 cells [2]
  effect on cell proliferation: no discernable effect
ANGPTL3
  secreted intact ANGPTL3: remained high at all concentrations
FGF23 [3]; cell extracts, 6 h, also with 100 μM chloroquine
  intact and cleaved FGF23 in cell lysates: no change
FGF23 [3]; media of HEK cells co-expressing FGF23 and ppGalNAc-T3, 6 h
  half-max of increase in ratio of cleaved/intact FGF23: 14 µM
FGF23 [3]; media, 6 h, increasing concentrations
  secreted intact FGF23: dose-dependent loss
Purified ppGalNAc-T3; 50 μM compound, versus ppGalNAc-T2
  inhibition of ppGalNAc-T3 in the secondary screen: strong and selective inhibitor
Purified ppGalNAc-T3; read-out: IC50 of inhibition of ppGalNAc-T3, purified enzyme, in vitro glycosylation
  IC50: 7 µM
Purified ppGalNAc-T3; substrate varied: Peptide (EA2)
  Ki: 9.9 µM
Purified ppGalNAc-T3; substrate varied: Peptide (EA2), 7.5 μM T3Inh-1
  Vmax: 82%
Purified ppGalNAc-T3; substrate varied: Peptide (EA2), 15 μM T3Inh-1
  Vmax: 36%
Purified ppGalNAc-T3; substrate varied: UDP-GalNAc
  Ki: 2.9 µM
Purified ppGalNAc-T3; substrate varied: UDP-GalNAc, 7.5 μM T3Inh-1
  Vmax: 71%
Purified ppGalNAc-T3; substrate varied: UDP-GalNAc, 15 μM T3Inh-1
  Vmax: 56%
Purified ppGalNAc-T2
  inhibition of ppGalNAc-T2: undetectable
MDA-MB231 cells [4]; 5 μM T3Inh-1, Matrigel-coated filters
  inhibition of invasion: 98%
MDA-MB231 cells [4]; 5 μM T3Inh-1, uncoated filters
  inhibition of migration: > 80%
MCF7 cells
  increase of invasion caused by ppGalNAc-T3 transfection: strongly blocked
HeLa cells [5]
  staining intensity by lectin Concanavalin A (ConA): did not affect
  staining intensity by lectin Sambucus Nigra (SNA): did not affect
  staining intensity by lectin Vicia Villosa (VVA): did not affect
  staining intensity by lectin Wheat germ agglutinin (WGA): did not affect
[6]; read-out: apparent Kd of direct binding, quenching at 324 nm
  Kd: 17 µM
[6]; stated in words
  affinity of binding to GalNAc-T3: low micromolar
[7]
  effects on animal health: no apparent ill effects
FGF23 [8]; 25 mg/kg intraperitoneal
  ratio of cleaved/intact FGF23 in the blood: robust and statistically significant increase
FGF23 [8]; 50 mg/kg intraperitoneal
  ratio of cleaved/intact FGF23 in the blood: robust and statistically significant increase
FGF23 [8]; intraperitoneal injection
  increase of level of proteolyzed C-terminal FGF23 fragment: 8 fold
